From patent US20230391868A1, “COMPOSITIONS FOR AND METHODS OF TREATING CANCER” (The George Washington University, priority 2022, published 2023)

Tests used:
THP1-derived macrophages = assay: M1/M2 marker gene expression in THP1-derived macrophages by qRT-PCR; format: cell-based, human
Description: Macrophages were polarized to M1-like phenotype using 50 ng/mL of interferon gamma (IFNγ, 575306, Biolegend) and 100 ng/mL of bacterial lipopolysaccharide (LPS, L2880, Sigma Aldrich, St. Louis, MO) for 24 hours. To polarize macrophages towards the M2-like phenotype, macrophages were stimulated with 20 ng/mL of IL-4 (214-14, PeproTech) and 20 ng/mL of IL-13 (575904, Biolegend). THP1 monocytes were treated with 5 ng/mL of phorbol 12-myristate 13-acetate (PMA) to induce differentiation into macrophages. Once converted to macrophages, media was replaced to remove PMA prior to treatment and/or polarization. Polarization towards M1 and M2 phenotypes was performed with respective recombinant human cytokines from PeproTech: 50 ng/mL of IFNγ (300-02), 20 ng/mL IL-4 (200-04), and 20 ng/mL IL-13 (200-13). 100 ng/mL LPS was also used to polarize toward the M1 phenotype. 3. In vivo Studies.
qRT-PCR: Total RNA was extracted from cells using the Trizol reagent according to manufacturer's instructions (ThermoFisher Scientific, 15596018). Samples were then processed immediately or stored at −80° C. RNA was quantified using a NanoDrop One Spectrophotometer (ThermoFisher Scientific). The 260/280 ratios were routinely over 1.8. Sample cDNA was produced using the iScript cDNA synthesis kit (Bio-Rad, 1708891). Target mRNA was quantified using MyIQ single-color real-time PCR detection system from Bio-Rad (Bio-Rad, Hercules, CA) and iQ SYBR green Supermix (Bio-Rad, 1708882). The following primers were synthesized by Invitrogen (Waltham, MA) with sequences designed by Origene (Rockville, MD): mouse R-actin (MP200232), mouse Nos2 (MP208933), mouse MRC1 (MP207800), human R-actin (HP204660), human IL-1β (HP200544), human MRC1 (HP206121), human NOS2 (HP200591), human CD209 (HP214086), mouse SIRPα (MP215450), mouse LRP1 (MP207604), human LRP1 (HP206040), mouse MFGE8 (MP208190), human MFGE8 (HP225757), mouse CD36 (MP201923), human CD36 (HP200058), and mouse CD47 (MP201932). Primers for mouse ARG-1 (PPM31770C) and human SIRPα (QT01031051) were purchased from Qiagen (Hilden, Germany). Human CD47 primer sequences were obtained from Sudo T, et al and are 5′-[…]-3′ (sense) (SEQ ID NO:01) and 5′-[…]-3′ (antisense) (SEQ ID NO:02) (Sudo T, et al. (2017) Oncol. Lett. 14:801-809). Human CD86 primer sequences are 5′-[…]-3′ (sense) (SEQ ID NO:03) and 5′-[…]-3′ (antisense) (SEQ ID NO:04). Mouse CD80 sequences are 5′-[…]-3′ (sense) (SEQ ID NO:05) and 5′-[…]-3′ (antisense) (SEQ ID NO:06). Cycling conditions were set as per manufacturer's instructions. Single product amplification was confirmed by melting curve analysis. Quantification is expressed in arbitrary units and target mRNA levels were normalized to R-actin expression. […]

mouse SIRPα promoter = assay: SIRPα-luc reporter luciferase assay in A31A7 macrophages; format: cell-based; settings: 10 μM of NextA; untreated transfected cells 32.2-fold (FIG. 2B)
Description: (§1) The mouse CD47 or SIRPα promoters were cloned into a promoterless pGL4.20[luc2/puro] vector using Genentech's cloning services (San Francisco, CA, USA). Vectors were transfected into SM1 and B16 melanoma cells using Lipofectamine 3000 (L3000008, ThermoFisher) and transfected cells were selected using puromycin. A31A7 macrophages were transiently transfected using jetOPTIMUS DNA transfection reagent (Polyplus, NY, USA). Luminescence was measured using the Luciferase Assay System (E4550, Promega) in a SpectraMax i3× Multi-Mode Microplate Reader (Molecular Devices).
To investigate whether HDAC6 controlled SIRPα expression at the transcriptional level, the mouse SIRPα promoter was cloned into a promoterless pGL4.20 [luc2/puro] vector to create a SIRPα-Luc reporter plasmid. e Nex, A31A7 macrophages were transiently transfected in the absence or presence of 10 μM of NextA and luminescence was evaluated. A31A7 cells were successfully transfected with the SIRPα-luciferase reporter vector as evidenced by a 32.2-fold increase in relative luminescence units (RLU) compared to untransfected cells (FIG. 2B).

mouse CD47 promoter = assay: CD47-luciferase reporter assay in SM1 melanoma cells; format: cell-based; settings: SM1 transfected with CD47-luciferase reporter; NextA at different concentrations (FIG. 3D)
Description: as §1
Furthermore, to investigate whether HDAC6 controls CD47 expression at the transcriptional level, the mouse CD47 promoter was cloned into a promoterless pGL4.20[luc2/puro] vector. SM1 melanoma cells were transfected with the CD47-luciferase reporter vector and stimulated with IFNγ in the absence or presence of NextA at different concentrations and measured luminescence. Treatment with NextA repressed IFNγ-mediated upregulation of Cd47 (FIG. 3D).

[1] = test system: WM793 human melanoma cells; assay: CD47 gene expression upon IFNγ in WM793 cells; format: cell-based; settings: 5 μM NextA (FIG. 3L)
Description: qRT-PCR: Total RNA was extracted from cells using the Trizol reagent according to manufacturer's instructions (ThermoFisher Scientific, 15596018). Samples were then processed immediately or stored at −80° C. RNA was quantified using a NanoDrop One Spectrophotometer (ThermoFisher Scientific). The 260/280 ratios were routinely over 1.8. Sample cDNA was produced using the iScript cDNA synthesis kit (Bio-Rad, 1708891). Target mRNA was quantified using MyIQ single-color real-time PCR detection system from Bio-Rad (Bio-Rad, Hercules, CA) and iQ SYBR green Supermix (Bio-Rad, 1708882). […] Quantification is expressed in arbitrary units and target mRNA levels were normalized to R-actin expression.
This phenomenon was further examined in human melanoma cell lines to test the translational application of the results obtained using mouse models. […] Furthermore, the effects of HDAC6 KD on IFNγ-driven CD47 upregulation was analyzed. […] The effects of pharmacological inhibition of HDAC6 in other human melanoma cell lines (WM1361A and WM793) were also assessed. […]

WM164 melanoma cells = assay: Flow cytometry-based phagocytosis assay, THP1-derived macrophages with WM164 cells; format: cell-based, human; settings: co-culture with WM164 melanoma cells (FIG. 4J)

In the case of `CCCCN(Cc1ccc(C(=O)NO)cc1)C(=O)Nc1ccccc1` [NextA, Nexturastat A], the “M1-associated markers NOS2, CD86, and IL1B” value (THP1-derived macrophages; THP1-derived M1 macrophages, 5 μM NextA (FIG. 1H)) is reported as “either unaffected or significantly upregulated”, the “expression of M2-associated markers CD206 and CD209 at the transcriptional level” value (THP1-derived macrophages; THP1-derived M2 macrophages, 5 μM NextA (FIG. 1I)) is reported as “significantly downregulated” and the “increase in relative luminescence units (RLU) compared to untransfected cells” value (mouse SIRPα promoter) is reported as 7.7 fold. The “IFNγ-mediated upregulation of Cd47 (luminescence)” value (mouse CD47 promoter) was “repressed”, the “IFNγ-driven CD47 upregulation” value [1] was “corroborated” and the “phagocytosis by unpolarized THP-1 derived macrophages” value (WM164 melanoma cells) was “significantly more phagocytic”.
